The values below come from ChEMBL document CHEMBL1141504, “An efficient route into synthetically challenging bridged achiral 1,2,4,5-tetraoxanes with antimalarial activity” (Bioorg Med Chem Lett, 2008).

Molecules are shown by their SMILES.

What is called logP is a log measure of how a compound divides between an organic and an aqueous phase. Read a low logP as a more hydrophilic compound. The IC50 is the concentration that inhibits the measured activity by half. A high value points to lower potency.

Data set [1] in a line: Partition coefficient, log P of the compound. The data set is classed as physicochemical. To be noted: octanol/water.
For another data set, the system named is Plasmodium falciparum. Description: Antimalarial activity against Plasmodium falciparum 3D7. Type of data set: functional, organism-based.

Molecule `C=C1COOC2(CCC(Cc3ccc(C(=O)OC)cc3)CC2)OOC1` gave a lipophilicity (logP) in data set [1] of 4.05. In the data set with Plasmodium falciparum, this molecule gave a half-inhibitory concentration (IC50) of 116 nM. Taken in the same sequence, the figures for `CCOC(=O)CC1CCC2(CC1)OOCCCOO2` were 2.2 and 118 nM. The corresponding values for `O=C(CC1CCC2(CC1)OOCCCOO2)N1CCOCC1` are 1.16 and 689 nM.

Regarding `C=C1COOC2(CCC(Cc3ccc(C(F)(F)F)cc3)CC2)OOC1`, the logP in data set [1] was 4.95. This molecule also gave an IC50 in the data set with Plasmodium falciparum of 42.8 nM. Taken in the same sequence, the figures for `Fc1ccc(CC2CCC3(CC2)OOCCCOO3)cc1` were 4.01 and 68.2 nM. Turning to `FC(F)(F)c1ccc(CC2CCC3(CC2)OOCCCOO3)cc1`, the lipophilicity (logP) in data set [1] was determined as 4.79. In the data set with Plasmodium falciparum, this molecule returned an IC50 of 52.4 nM. The corresponding values for `N#Cc1ccc(CC2CCC3(CC2)OOCCCOO3)cc1` are 3.46 and 99.7 nM. Regarding `c1ccc(CC2CCC3(CC2)OOCCCOO3)cc1`, the logP in data set [1] was found to be 3.93. In the data set with Plasmodium falciparum, this molecule returned a concentration for half-maximal inhibition (IC50) of 51.9 nM. Molecule `CS(=O)(=O)c1ccc(CC2CCC3(CC2)OOCCCOO3)cc1` came in with a log partition coefficient (logP) in data set [1] of 2.65.

As to `C=C1COOC2(CCC(Cc3ccc(F)cc3)CC2)OOC1`, in data set [1], the logP was 4.2. The molecule also gave an IC50 in the data set with Plasmodium falciparum of 43.4 nM.

As for `COC(=O)c1ccc(CC2CCC3(CC2)OOCCCOO3)cc1`, the logP in data set [1] amounted to 3.75. Half-maximal inhibition in the data set on Plasmodium falciparum (IC50) was put at 93.5 nM. `CO[C@H]1O[C@@H]2O[C@@]3(C)CC[C@H]4[C@H](C)CC[C@@H]([C@H]1C)[C@@]24OO3` [ARTEMETHER]: the IC50 in the data set with Plasmodium falciparum was found to be 3.2 nM. On the same count and under the same terms, next, `C[C@@H]1CC[C@H]2[C@@H](C)C(=O)O[C@@H]3O[C@@]4(C)CC[C@@H]1[C@]32OO4` [ARTEMISININ]: 9.2 nM.
